In PubChem BioAssay (NCI):
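Following 48 hours of exposure in 96-well plates, responses at five concentrations were used to interpolate endpoints linearly. The concentration for 50% growth inhibition is given as GI50. TGI denotes the concentration required for complete inhibition of growth.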

Assays:
Assay in all cases: inhibition of tumour cell growth, NCI panel, 48 h
[1] = test system: UO-31 renal
[2] = test system: K-562 leukemia
[3] = test system: HCT-15 colon
[4] = test system: DU-145 prostate
[5] = test system: U251 CNS
[6] = test system: SK-MEL-28 melanoma
[7] = test system: HCT-116 colon
[8] = test system: ACHN renal
[9] = test system: SK-OV-3 ovarian
[10] = test system: MDA-MB-435
[11] = test system: TK-10 renal
[12] = test system: COLO 205 colon
[13] = test system: NCI-H226 lung
[14] = test system: CAKI-1 renal
[15] = test system: NCI-H23 lung
[16] = test system: RXF 393 renal
[17] = test system: PC-3 prostate
[18] = test system: HOP-92 NSCLC
[19] = test system: MDA-MB-468 breast
[20] = test system: MOLT-4 leukemia
[21] = test system: HOP-62 NSCLC
[22] = test system: OVCAR-3 ovarian
[23] = test system: MCF7 breast
[24] = test system: NCI-H460 lung
[25] = test system: SNB-75 CNS
[26] = test system: OVCAR-8 ovarian
[27] = test system: UACC-62 melanoma
[28] = test system: EKVX NSCLC
[29] = test system: HCC-2998 colon
[30] = test system: RPMI-8226 leukemia
[31] = test system: SNB-19 CNS
[32] = test system: SK-MEL-2 melanoma
[33] = test system: A498 renal
[34] = test system: 786-0 renal
[35] = test system: SK-MEL-5 melanoma
[36] = test system: UACC-257 melanoma
[37] = test system: SN12C renal
[38] = test system: NCI-H522 lung
[39] = test system: BT-549 breast
[40] = test system: MDA-MB-231 breast
[41] = test system: SF-268 CNS
[42] = test system: NCI/ADR-RES ovarian
[43] = test system: CCRF-CEM leukemia
[44] = test system: HS 578T breast
[45] = test system: SF-295 CNS
[46] = test system: A549 NSCLC
[47] = test system: SR leukemia
[48] = test system: T-47D breast
[49] = test system: OVCAR-4 ovarian
[50] = test system: M14 melanoma
[51] = test system: KM12 colon
[52] = test system: SF-539 CNS
[53] = test system: MALME-3M melanoma
[54] = test system: IGROV1 ovarian
[55] = test system: HT29 colon
[56] = test system: OVCAR-5 ovarian
[57] = test system: LOX IMVI melanoma
[58] = test system: SW-620 colon
[59] = test system: HL-60(TB) leukemia

## CC(=C(c1ccc(OCCN2CCCCC2)cc1)c1ccc(OCCN2CCCCC2)cc1)c1ccccc1
[1]
  GI50: 3.82 µM
  TGI: 10.4 µM
[2]
  GI50: 3.26 µM
  TGI: > 21.8 µM
[3]
  GI50: 4.98 µM
  TGI: > 21.8 µM
[4]
  GI50: 12.4 µM
  TGI: > 21.8 µM
[5]
  GI50: 3.76 µM
  TGI: 8.51 µM
[6]
  GI50: 3.62 µM
  TGI: 6.68 µM
[7]
  GI50: 3.43 µM
  TGI: 10.1 µM
[8]
  GI50: 5.2 µM
  TGI: 17.2 µM
[9]
  GI50: > 21.8 µM
  TGI: > 21.8 µM
[10]
  GI50: 3.25 µM
  TGI: 6.88 µM
[11]
  GI50: 16.7 µM
  TGI: > 21.8 µM
[12]
  GI50: 3.53 µM
  TGI: 7.61 µM
[13]
  GI50: > 21.8 µM
  TGI: > 21.8 µM
[14]
  GI50: 5.01 µM
  TGI: > 21.8 µM
[15]
  GI50: 12.5 µM
  TGI: > 21.8 µM
[16]
  GI50: 3.21 µM
  TGI: 10.4 µM
[17]
  GI50: 8.19 µM
  TGI: > 21.8 µM
[18]
  GI50: 5.01 µM
  TGI: > 21.8 µM
[19]
  GI50: 3.79 µM
  TGI: 9.45 µM
[20]
  GI50: 4.15 µM
  TGI: 12.9 µM
[21]
  GI50: 6.45 µM
  TGI: > 21.8 µM
[22]
  GI50: 3.84 µM
  TGI: 17.2 µM
[23]
  GI50: 0.625 µM
  TGI: 4.98 µM
[24]
  GI50: 4.1 µM
  TGI: 9.98 µM
[25]
  GI50: 3.79 µM
  TGI: > 21.8 µM
[26]
  GI50: > 21.8 µM
  TGI: > 21.8 µM
[27]
  GI50: 3.64 µM
  TGI: 6.83 µM
[28]
  GI50: > 21.8 µM
  TGI: > 21.8 µM
[29]
  GI50: 4.7 µM
  TGI: 21 µM
[30]
  GI50: 6.54 µM
  TGI: > 21.8 µM
[31]
  GI50: 6.88 µM
  TGI: > 21.8 µM
[32]
  GI50: 3.85 µM
  TGI: 7.72 µM
[33]
  GI50: > 21.8 µM
  TGI: > 21.8 µM
[34]
  GI50: 3.39 µM
  TGI: 6.91 µM
[35]
  GI50: 3.64 µM
  TGI: 6.87 µM
[36]
  GI50: 3.18 µM
  TGI: 6.3 µM
[37]
  GI50: > 21.8 µM
  TGI: > 21.8 µM
[38]
  GI50: 3.26 µM
  TGI: 7.85 µM
[39]
  GI50: > 21.8 µM
  TGI: > 21.8 µM
[40]
  GI50: 4 µM
  TGI: 9.17 µM
[41]
  GI50: 5.56 µM
  TGI: > 21.8 µM
[42]
  GI50: 12.1 µM
  TGI: > 21.8 µM
[43]
  GI50: 5.2 µM
  TGI: 21.7 µM
[44]
  GI50: 3.33 µM
  TGI: 10.9 µM
[45]
  GI50: 3.52 µM
  TGI: 7.17 µM
[46]
  GI50: 5.91 µM
  TGI: > 21.8 µM
[47]
  GI50: 3.68 µM
  TGI: 11.5 µM
[48]
  GI50: 2.55 µM
  TGI: 6.6 µM
[49]
  GI50: 7.66 µM
  TGI: > 21.8 µM
[50]
  GI50: 3.95 µM
  TGI: 8.32 µM
[51]
  GI50: 8.17 µM
  TGI: > 21.8 µM
[52]
  GI50: 3.39 µM
  TGI: 6.39 µM
[53]
  GI50: 3.38 µM
  TGI: 6.31 µM
[54]
  GI50: 9.78 µM
  TGI: > 21.8 µM
[55]
  GI50: 3.77 µM
  TGI: 11.7 µM
[56]
  GI50: 11.7 µM
  TGI: > 21.8 µM
[57]
  GI50: 3.48 µM
  TGI: 6.59 µM
[58]
  GI50: 2.95 µM
  TGI: 6.86 µM
[59]
  GI50: 2.67 µM
  TGI: 7.09 µM
